Measurements reported in the OligoGym collection.
After the bases stand the sugars from the 5' end (letter, count) and the backbone: PS all phosphorothioate, else s phosphorothioate and o phosphodiester by linkage. Methylation of C is not given here. e = 2'-O-(2-methoxyethyl) (MOE); k = constrained ethyl (cEt); d = 2'-deoxy (DNA); m = 2'-O-methyl

Biological target: HSD17B13
Details: ASO, HepaRG

CCAGGTTGAGATAAAG (sugars k3 d9 k3 e1, PS)
target mRNA inhibition (1 µM): 51%

AAATTATTGCCTGAAC (sugars k3 d10 k3, PS)
target mRNA inhibition (1 µM): 32%

TGGTAACGGTGATCAA (sugars kkdddddddddkekek, PS)
target mRNA inhibition (1 µM): 26%

TCCATTATCCTTACTC (sugars k3 d10 k3, PS)
target mRNA inhibition (1 µM): 15%

ACTTGAATTCTGTGTC (sugars k3 d10 k3, PS)
target mRNA inhibition (1 µM): 52%

TTATTCACCACGATTG (sugars k3 d10 k3, PS)
target mRNA inhibition (1 µM): 40%

AATGCTACTTGAACAG (sugars k3 d10 k3, PS)
target mRNA inhibition (1 µM): 54%

TAAATCAGGCAGTCAT (sugars k3 d10 k3, PS)
target mRNA inhibition (1 µM): 35%

TTTGGTGAACCCAGTA (sugars k3 d10 k3, PS)
target mRNA inhibition (1 µM): 34%

GGCTAGGGAAATCTTT (sugars k3 d10 k3, PS)
target mRNA inhibition (1 µM): 57%

AGCTAATGTATGAGGT (sugars k3 d10 k3, PS)
target mRNA inhibition (1 µM): 56%

TTGAGTAGTGTAAGCT (sugars k3 d1 m1 d8 k3, PS)
target mRNA inhibition (1 µM): 35%

GAAACCAATCCTCAGC (sugars k3 d10 k3, PS)
target mRNA inhibition (1 µM): 3%

GATTGTTACATCACCC (sugars k3 d10 k3, PS)
target mRNA inhibition (0.02 µM): 15% | target mRNA inhibition (0.078 µM): 32% | target mRNA inhibition (0.313 µM): 33% | target mRNA inhibition (1 µM): 65% | target mRNA inhibition (1.25 µM): 74% | target mRNA inhibition (5 µM): 91%

AATACTCCCCAATTGC (sugars k3 d10 k3, PS)
target mRNA inhibition (1 µM): 0%

TGGGATACTATTCTCC (sugars k3 d10 k3, PS)
target mRNA inhibition (1 µM): 18%

AGACAGGGTGGTAACG (sugars k3 d10 k3, PS)
target mRNA inhibition (1 µM): 51%

CAGAGTTATTGTAGGG (sugars k3 d10 k3, PS)
target mRNA inhibition (0.02 µM): 16% | target mRNA inhibition (0.078 µM): 24% | target mRNA inhibition (0.313 µM): 51% | target mRNA inhibition (1 µM): 83% | target mRNA inhibition (1.25 µM): 74% | target mRNA inhibition (5 µM): 93%

GAGCGATAGATCTCTT (sugars k3 d10 k3, PS)
target mRNA inhibition (1 µM): 0%

TAGAATAGTCTTCAGC (sugars k3 d9 k3 e1, PS)
target mRNA inhibition (1 µM): 50%

GGCTTATGAAGTTAGT (sugars k3 d10 k3, PS)
target mRNA inhibition (1 µM): 59%

AGTTATTAGAAGTCAG (sugars k3 d9 k3 e1, PS)
target mRNA inhibition (1 µM): 56%

GTAGCTTTTGTCCACC (sugars kkdddddddddkekek, PS)
target mRNA inhibition (1 µM): 34%

CTGTGTTAGCTTTAAT (sugars kkdddddddddkekek, PS)
target mRNA inhibition (1 µM): 47%

TTGAGATAAAGCTGCC (sugars k3 d10 k3, PS)
target mRNA inhibition (1 µM): 49%

ACCGTATTCCCAACGC (sugars k3 d10 k3, PS)
target mRNA inhibition (0.02 µM): 14% | target mRNA inhibition (0.078 µM): 35% | target mRNA inhibition (0.313 µM): 76% | target mRNA inhibition (1 µM): 90% | target mRNA inhibition (1.25 µM): 83% | target mRNA inhibition (5 µM): 94%

GCTTTTGTCCACCTTT (sugars k3 d9 k3 e1, PS)
target mRNA inhibition (0.02 µM): 0% | target mRNA inhibition (0.078 µM): 17% | target mRNA inhibition (0.313 µM): 37% | target mRNA inhibition (1 µM): 81% | target mRNA inhibition (1.25 µM): 69% | target mRNA inhibition (5 µM): 83%

TTTAAAATAGAGTCGG (sugars k3 d1 m1 d8 k3, PS)
target mRNA inhibition (1 µM): 77%

ATCAAAATGGTGGCGA (sugars k3 d10 k3, PS)
target mRNA inhibition (1 µM): 20%

GTAAGTATTCCATCTA (sugars kkdddddddddkekek, PS)
target mRNA inhibition (1 µM): 53%

ACTATGTAATAGGCAG (sugars k3 d10 k3, PS)
target mRNA inhibition (0.02 µM): 33% | target mRNA inhibition (0.078 µM): 31% | target mRNA inhibition (0.313 µM): 71% | target mRNA inhibition (1 µM): 85% | target mRNA inhibition (1.25 µM): 88% | target mRNA inhibition (5 µM): 94%

ACTGTGACGATGTGGC (sugars k3 d10 k3, PS)
target mRNA inhibition (1 µM): 40%

ACAGAGTTATTGTAGG (sugars k3 d10 k3, PS)
target mRNA inhibition (1 µM): 58%

GGCTACAGATTGGAAT (sugars k3 d1 m1 d8 k3, PS)
target mRNA inhibition (1 µM): 40%

TAGTCTTCAGCAAAGT (sugars k3 d1 m1 d8 k3, PS)
target mRNA inhibition (1 µM): 41%

ATAAGAGATGAGTAGG (sugars k3 d10 k3, PS)
target mRNA inhibition (1 µM): 56%

TATTATCAGGACTGAA (sugars k3 d10 k3, PS)
target mRNA inhibition (1 µM): 63%

CACTTTTGGTGGACTT (sugars k3 d10 k3, PS)
target mRNA inhibition (1 µM): 21%

TAGGAAAGCTCATGGT (sugars k3 d10 k3, PS)
target mRNA inhibition (1 µM): 27%

ATGTTTATGTAAGCAC (sugars k3 d10 k3, PS)
target mRNA inhibition (1 µM): 70%

CCCCTAAGTTATTATC (sugars k3 d10 k3, PS)
target mRNA inhibition (1 µM): 33%

CAGAUTATTATGTGAT (sugars k3 d1 m1 d8 k3, PS)
target mRNA inhibition (1 µM): 32%

TAAATACCCTTGGTGG (sugars k3 d10 k3, PS)
target mRNA inhibition (1 µM): 7%

CAGAGACATGAGGTTT (sugars k3 d10 k3, PS)
target mRNA inhibition (1 µM): 61%

TATTCACCACGATTGT (sugars k3 d10 k3, PS)
target mRNA inhibition (1 µM): 2%

TTTTATTATGAGGATC (sugars k3 d10 k3, PS)
target mRNA inhibition (1 µM): 18%

AGTCTTAAACCTTCCC (sugars kkdddddddddkekek, PS)
target mRNA inhibition (1 µM): 43%

TAGTATAGTTATCTTC (sugars kkdddddddddkekek, PS)
target mRNA inhibition (1 µM): 34%

AGGAGTAGTGGAGCCA (sugars k3 d10 k3, PS)
target mRNA inhibition (1 µM): 16%

AGCAAGCCAACAGAGA (sugars k3 d10 k3, PS)
target mRNA inhibition (1 µM): 40%

TTGGACATGAAGATTA (sugars k3 d10 k3, PS)
target mRNA inhibition (1 µM): 18%

AGAGACATGAGGTTTT (sugars k3 d10 k3, PS)
target mRNA inhibition (0.02 µM): 18% | target mRNA inhibition (0.078 µM): 16% | target mRNA inhibition (0.313 µM): 47% | target mRNA inhibition (1 µM): 77% | target mRNA inhibition (1.25 µM): 69% | target mRNA inhibition (5 µM): 85%

TAGTTTTCGGCACTCA (sugars k3 d10 k3, PS)
target mRNA inhibition (1 µM): 35%

GGATTGCAGAAGAGTA (sugars k3 d10 k3, PS)
target mRNA inhibition (0.02 µM): 0% | target mRNA inhibition (0.078 µM): 13% | target mRNA inhibition (0.313 µM): 47% | target mRNA inhibition (1 µM): 76% | target mRNA inhibition (1.25 µM): 77% | target mRNA inhibition (5 µM): 74%

GAAGATCGGCTGGATA (sugars k3 d10 k3, PS)
target mRNA inhibition (1 µM): 16%

CTAATCTCAGTACTCC (sugars k3 d10 k3, PS)
target mRNA inhibition (1 µM): 53%

TTGAGTTCTCCACTGC (sugars k3 d9 k3 e1, PS)
target mRNA inhibition (1 µM): 26%

GACAUGAGGTTTTGAT (sugars k3 d1 m1 d8 k3, PS)
target mRNA inhibition (1 µM): 34%

AGTACCAAGACACTAA (sugars k3 d10 k3, PS)
target mRNA inhibition (1 µM): 66%

AGCGGCAAATTTGCTG (sugars k3 d10 k3, PS)
target mRNA inhibition (1 µM): 5%

CTGGAACAATATGGGA (sugars kkdddddddddkekek, PS)
target mRNA inhibition (1 µM): 33%

TTTCTTATGTAATAGC (sugars k3 d10 k3, PS)
target mRNA inhibition (1 µM): 76%

CATTTGAAGTCTATAC (sugars k3 d10 k3, PS)
target mRNA inhibition (1 µM): 21%

CCTTTTAACTACCCTC (sugars k3 d10 k3, PS)
target mRNA inhibition (1 µM): 22%

ACCCAAGCTACCTCCA (sugars k3 d10 k3, PS)
target mRNA inhibition (1 µM): 9%

TGAATGTAAAGGCTGG (sugars k3 d10 k3, PS)
target mRNA inhibition (1 µM): 38%

TGATTTAGAGAGCGAT (sugars k3 d10 k3, PS)
target mRNA inhibition (1 µM): 35%

AGATAAAGCTGCCTGC (sugars k3 d9 k3 e1, PS)
target mRNA inhibition (1 µM): 44%

GTCCCAGCATTATTCA (sugars k3 d10 k3, PS)
target mRNA inhibition (1 µM): 21%

CATAGTTCAAATTGGA (sugars k3 d10 k3, PS)
target mRNA inhibition (1 µM): 39%

GTGGTAACGGTGATCA (sugars k3 d10 k3, PS)
target mRNA inhibition (1 µM): 49%

TAGCTTAAACTCCAAT (sugars k3 d10 k3, PS)
target mRNA inhibition (1 µM): 60%

GTTATTGTAGGGATTG (sugars k3 d10 k3, PS)
target mRNA inhibition (1 µM): 69%

TAAACATCTCTGGGAC (sugars k3 d9 k3 e1, PS)
target mRNA inhibition (1 µM): 32%

AATTTCATACAGTTCG (sugars k3 d10 k3, PS)
target mRNA inhibition (1 µM): 66%

CCAAAGATGAGAGTCT (sugars k3 d10 k3, PS)
target mRNA inhibition (1 µM): 19%

ATAGGCTAAAATGGTC (sugars k3 d10 k3, PS)
target mRNA inhibition (1 µM): 61%

CTTATTGGTAAGTATT (sugars k3 d9 k3 e1, PS)
target mRNA inhibition (1 µM): 24%

TTGAACCGTATTCCCA (sugars k3 d10 k3, PS)
target mRNA inhibition (1 µM): 76%

TCCAAGTAATTACTTC (sugars k3 d10 k3, PS)
target mRNA inhibition (0.02 µM): 0% | target mRNA inhibition (0.078 µM): 3% | target mRNA inhibition (0.313 µM): 23% | target mRNA inhibition (1 µM): 72% | target mRNA inhibition (1.25 µM): 43% | target mRNA inhibition (5 µM): 67%

TCAAAATGGTGGCGAG (sugars k3 d10 k3, PS)
target mRNA inhibition (1 µM): 31%

TGTTATCAGAAACTTA (sugars k3 d10 k3, PS)
target mRNA inhibition (1 µM): 44%

AGTGCCAAACCAATGT (sugars kkdddddddddkekek, PS)
target mRNA inhibition (0.02 µM): 13% | target mRNA inhibition (0.078 µM): 2% | target mRNA inhibition (0.313 µM): 40% | target mRNA inhibition (1 µM): 71% | target mRNA inhibition (1.25 µM): 61% | target mRNA inhibition (5 µM): 83%

TAAGTAGTCTGCCTGC (sugars k3 d10 k3, PS)
target mRNA inhibition (1 µM): 19%

GAACAGTCTTAAACCT (sugars k3 d9 k3 e1, PS)
target mRNA inhibition (1 µM): 64%

AATTATTTCTTGCGAG (sugars k3 d10 k3, PS)
target mRNA inhibition (1 µM): 16%

CTAAGTTATTATCCCC (sugars k3 d10 k3, PS)
target mRNA inhibition (0.02 µM): 16% | target mRNA inhibition (0.078 µM): 22% | target mRNA inhibition (0.313 µM): 48% | target mRNA inhibition (1 µM): 70% | target mRNA inhibition (1.25 µM): 72% | target mRNA inhibition (5 µM): 95%

ATAGCAAGCCAACAGA (sugars kkdddddddddkekek, PS)
target mRNA inhibition (1 µM): 23%

CACAAGTAAGGTAAAG (sugars k3 d9 k3 e1, PS)
target mRNA inhibition (1 µM): 55%

GTCCAGGTTGAGATAA (sugars k3 d9 k3 e1, PS)
target mRNA inhibition (1 µM): 52%

GTAATAAAGTCCAGAA (sugars k3 d10 k3, PS)
target mRNA inhibition (1 µM): 66%
